system: Human Leukemia Cell K562; test: Inhibitory effects on Human Leukemia Cell K562 (MTT); format: cell-based; conditions: Homo sapiens, K562 cells, 72 h~120 h
Description: K562 cells were seeded in RPMI1640 cell culture solution containing 10% of fetal calf serum (supplemented with 100 ku/L of penicillin and streptomycin each). Culture dish was placed in the cell incubator under 5% of CO2 at 37° C. The culture solution was centrifuged and replaced every 2-3 days to passage and collect cells.
Cells in logarithmic growth phase were formulated into the cell suspensions at the required concentration with RPMI1640 culture solution containing 10% fetal calf serum. The resulting mixture was added to 96-wells cell culture plate at 3,000 cells per well (100 μl); after 12 hours of culture, to each well was added different amount of stock solution. The final concentrations of the samples are 100 μg/ml, 10 μg/ml, 1 μg/ml, […], and 0.01 μg/ml respectively in triplicate. After 72 h˜120 h, supernatant was discarded. To each well was added […] fresh serum-free culture solution containing 5 mg/ml blue tetrazolium (MTT). After culturing for 4 hours at 37° C., the mixture was centrifuged at 3000 rpm/min and the supernatant was discarded. Formazan was dissolved with 200 μl DMSO. After vortex oscillation for 1 min, absorbance value (OD-value) was measured on microplate reader at the wavelength of 570/450 nm. Inhibition ratio=(control group OD-value−drug group OD-value)/control group OD-value×100%.

| SMILES | IC50 [nM] |
| --- | --- |
| Cc1ccc(NC(=O)c2cc(F)cc(C(F)(F)F)c2)cc1NC(=O)/C=C/c1cncnc1 [compound 33, N-(4-methyl-3-(3-(pyrimidin-5-yl)acrylamido)phenyl)-5-fluoro-3-(trifluoromethyl)benzamide] | < 1 |
| Cc1ccc(NC(=O)c2ccc(F)cc2F)cc1NC(=O)/C=C/c1cccnc1 [compound 3, N-(4-methyl-3-(3-(pyridin-3-yl)acrylamido)phenyl)-2,4-difluoro benzamide] | < 2.5 |
| Cc1ccc(NC(=O)c2ccc(C)c(NC(=O)/C=C/c3cncnc3)c2)cc1F [compound 80, N-(3-fluoro-4-methylphenyl)-4-methyl-3-(3-(pyrimidin-5-yl)acrylamido)benzamide] | 2 to 20 |
| Cc1ccc(NC(=O)c2ccc(CN3CCN(C)CC3)c(C(F)(F)F)c2)cc1NC(=O)/C=C/c1cncnc1 [compound 39, N-(4-methyl-3-(3-(pyrimidin-5-yl)acrylamido)phenyl)-4-((4-methylpiperazin-1-yl)methyl)-3-(trifluoromethyl)benzamide] | < 1 |
| Cc1cn(-c2ccc(NC(=O)c3ccc(C)c(NC(=O)/C=C/c4cccnc4)c3)cc2C(F)(F)F)cn1 [compound 55, N-(4-(4-methyl-1H-imidazol-1-yl)-3-(trifluoromethyl)phenyl)-4-methyl-3-(3-(pyridin-3-yl)acrylamido)benzamide] | < 2 |
| Cc1ccc(C(=O)Nc2ccc(N3CCOCC3)c(C(F)(F)F)c2)cc1NC(=O)/C=C/c1cncnc1 [compound 78, N-(4-(morpholin-4-yl)-3-(trifluoromethyl)phenyl)-4-methyl-3-(3-(pyrimidin-5-yl)acrylamido)benzamide] | < 1 |
| Cc1ccc(C(=O)Nc2cccc(C(F)(F)F)c2)cc1NC(=O)/C=C/c1cccnc1 [compound 51, N-(3-(trifluoromethyl)phenyl)-4-methyl-3-(3-(pyridin-3-yl)acrylamido)benzamide] | < 2 |
| Cc1ccc(C(=O)Nc2ccc(Cl)c(Cl)c2)cc1NC(=O)/C=C/c1cccnc1 [compound 56, N-(3,4-dichlorophenyl)-4-methyl-3-(3-(pyridin-3-yl)acrylamido)benzamide] | 2 to 20 |
| Cc1ccc(NC(=O)c2ccc(C)c(C(F)(F)F)c2)cc1NC(=O)/C=C/c1cccnc1 [compound 7, N-(4-methyl-3-(3-(pyridin-3-yl)acrylamido)phenyl)-3-(rifluoromethyl)-4-methyl benzamide] | < 1 |
| Cc1ccc(NC(=O)c2ccc(CN3CC[C@@H](N(C)C)C3)c(C(F)(F)F)c2)cc1NC(=O)/C=C/c1cccnc1 [compound 22, N-(4-methyl-3-(3-(pyridin-3-yl)acrylamido)phenyl)-4-(((R)-3-(dimethylamino)pyrrolidin-1-yl)methyl)-3-(trifluoromethyl)benzamide] | < 1 |
| Cc1ccc(C(=O)Nc2ccc(F)c(Cl)c2)cc1NC(=O)/C=C/c1cccnc1 [compound 50, N-(3-chloro-4-fluorophenyl)-4-methyl-3-(3-(pyridin-3-yl)acrylamido)benzamide] | 2 to 20 |
| CCN1CCN(c2ccc(NC(=O)c3ccc(C)c(NC(=O)/C=C/c4cccnc4)c3)cc2C(F)(F)F)CC1 [compound 74, N-(4-(4-ethylpiperazin-1-yl)-3-(trifluoromethyl)phenyl)-4-methyl-3-(3-(pyridin-3-yl)acrylamido)benzamide] | 2 to 20 |
| Cc1ccc(NC(=O)c2ccc(CN3CCN(C)CC3)c(C(F)(F)F)c2)cc1NC(=O)/C=C/c1cccnc1 [compound 19, N-(4-methyl-3-(3-(pyridin-3-yl)acrylamido)phenyl)-4-((4-methylpiperazin-1-yl)methyl)-3-(trifluoromethyl)benzamide] | < 1 |
| Cc1ccc(C(=O)Nc2c(C)cccc2Cl)cc1NC(=O)/C=C/c1cncnc1 [compound 82, N-(2-chloro-6-methylphenyl)-4-methyl-3-(3-(pyrimidin-5-yl)acrylamido)benzamide] | < 20 |
| Cc1ccc(C(=O)Nc2ccc(Cl)c(C(F)(F)F)c2)cc1NC(=O)/C=C/c1cncnc1 [compound 79, N-(4-chloro-3-(trifluoromethyl)phenyl)-4-methyl-3-(3-(pyrimidin-5-yl)acrylamido)benzamide] | 2 to 20 |
| CCN1CCN(Cc2ccc(C(=O)Nc3ccc(C)c(NC(=O)/C=C/c4cccnc4)c3)cc2C(F)(F)F)CC1 [compound 20, N-(4-methyl-3-(3-(pyridin-3-yl)acrylamido)phenyl)-4-((4-ethylpiperazin-1-yl)methyl)-3-(trifluoromethyl)benzamide] | < 1 |
| Cc1ccc(C(=O)Nc2cc(C(F)(F)F)ccc2Cl)cc1NC(=O)/C=C/c1cccnc1 [compound 57, N-(2-chloro-5-(trifluoromethyl)phenyl)-4-methyl-3-(3-(pyridin-3-yl)acrylamido)benzamide] | 2 to 20 |

| SMILES | IC50 [nM] |
| --- | --- |
| Cc1ccc(NC(=O)c2ccc(CN3C[C@@H](C)N[C@@H](C)C3)cc2)cc1NC(=O)/C=C/c1cccnc1 [compound 12] | < 5 |
| Cc1ccc(NC(=O)c2ccc(C)c(NC(=O)/C=C/c3cccnc3)c2)cc1 [compound 66, N-(4-(methyl)phenyl)-4-methyl-3-(3-(pyridin-3-yl)acrylamido)benzamide] | 2 to 20 |
| Cc1ccc(NC(=O)c2ccc(CN3CCN(C)CC3)c(Br)c2)cc1NC(=O)/C=C/c1cccnc1 [compound 26, N-(4-methyl-3-(3-(pyridin-3-yl)acrylamido)phenyl)-4-((4-dimethylpiperazin-1-yl)methyl)-3-bromobenzamide] | 2 to 20 |
| Cc1ccc(C(=O)Nc2ccc(N3CCOCC3)c(C(F)(F)F)c2)cc1NC(=O)/C=C/c1cccnc1 [compound 69, N-(4-(morpholin-4-yl)-3-(trifluoromethyl)phenyl)-4-methyl-3-(3-(pyridin-3-yl)acrylamido)benzamide] | < 1 |
| CCN1CCN(Cc2ccc(C(=O)Nc3ccc(C)c(NC(=O)/C=C/c4cccnc4)c3)cc2)CC1 [compound 13, N-(4-methyl-3-(3-(pyridin-3-yl)acrylamido)phenyl)-4-((4-ethylpiperazin-1-yl)methyl)benzamide] | 2 |
| Cc1ccc(C(=O)Nc2ccc(F)c(C(F)(F)F)c2)cc1NC(=O)/C=C/c1cccnc1 [compound 60, N-(4-fluoro-3-(trifluoromethyl)phenyl)-4-methyl-3-(3-(pyridin-3-yl)acrylamido)benzamide] | < 1 |
| Cc1ccc(NC(=O)c2ccc(CN3CCCN(C)CC3)c(C(F)(F)F)c2)cc1NC(=O)/C=C/c1cccnc1 [compound 25, N-(4-methyl-3-(3-(pyridin-3-yl)acrylamido)phenyl)-4-((4-methyl-1,4-homopiperazin-1-yl)methyl)-3-(trifluoromethyl)benzamide] | 2 to 20 |
| Cc1ccc(NC(=O)c2ccc(C)c(C(F)(F)F)c2)cc1NC(=O)/C=C/c1cncnc1 [compound 32, N-(4-methyl-3-(3-(pyrimidin-5-yl)acrylamido)phenyl)-4-methyl-3-(trifluoromethyl)benzamide] | < 1 |
| Cc1ccc(NC(=O)c2ccc(F)cc2)cc1NC(=O)/C=C/c1cccnc1 [compound 2, N-(4-methyl-3-(3-(pyridin-3-yl)acrylamido)phenyl)-4-fluoro benzamide] | < 2.7 |
| Cc1ccc(NC(=O)c2ccc(Cl)cc2Cl)cc1NC(=O)/C=C/c1cccnc1 [compound 4, N-(4-methyl-3-(3-(pyridin-3-yl)acrylamido)phenyl)-2,4-dichloro benzamide] | 2 to 20 |
| Cc1ccc(C(=O)Nc2ccc(F)c(Cl)c2)cc1NC(=O)/C=C/c1cncnc1 [compound 81, N-(3-chloro-4-fluorophenyl)-4-methyl-3-(3-(pyrimidin-5-yl)acrylamido)benzamide] | < 20 |
| Cc1ccc(C(=O)Nc2ccc(C)c(NC(=O)/C=C/c3cccnc3)c2)cc1 [compound 1, N-(4-methyl-3-(3-(pyridin-3-yl)acrylamido)phenyl)-4-methylbenzamide] | < 2.7 |
| Cc1ccc(NC(=O)c2cc(F)cc(C(F)(F)F)c2)cc1NC(=O)/C=C/c1cccnc1 [compound 10, N-(4-methyl-3-(3-(pyridin-3-yl)acrylamido)phenyl)-3-fluoro-5-(trifluoromethyl)benzamide] | < 1 |
| Cc1ccc(NC(=O)Nc2ccc(F)c(Cl)c2)cc1NC(=O)/C=C/c1cccnc1 [compound 102, N-(5-(3-(3-chloro-4-fluorophenyl)ureido)-2-methylphenyl)-3-(pyridin-3-yl)acrylamide] | 10 to 20 |
| Cc1ccc(NC(=O)c2ccc(C)c(NC(=O)/C=C/c3cccnc3)c2)cc1F [compound 61, N-(3-fluoro-4-methylphenyl)-4-methyl-3-(3-(pyridin-3-yl)acrylamido)benzamide] | < 1 |
| Cc1cn(-c2cc(NC(=O)c3ccc(C)c(NC(=O)/C=C/c4cncnc4)c3)cc(C(F)(F)F)c2)cn1 [compound 90, N-(3-(4-methyl-1H-imidazol-1-yl)-5-(trifluoromethyl)phenyl)-4-methyl-3-(3-(pyrimidin-5-yl)acrylamido)benzamide] | < 1 |

same assay, conditions: K562 cells, 72 h~120 h

| SMILES | IC50 [nM] |
| --- | --- |
| Cc1ccc(NC(=O)c2ccc(CN3CCC(N(C)C)C3)c(C(F)(F)F)c2)cc1NC(=O)/C=C/c1cncnc1 (stereo not shown) [compound 44, N-(4-methyl-3-(3-(pyrimidin-5-yl)acrylamido)phenyl)-4-((3-(dimethylamino)pyrrolidin-1-yl)methyl)-3-(trifluoromethyl)benzamide] | < 1 |
